Source: the supplement of paper PMC10307832

Assays:
Assay in all cases: relative viability (nuclei count vs DMSO), 5 days (fraction); higher = more cells survive
[1] = test system: IA-LM
Method in brief: (§1)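 Lung cancer cell lines in 1536-well plates got either a single drug or a fixed anchor-drug dose together with five library-drug doses (not always all listed) in √10 steps, by pin tool, on the day after seeding. Nuclei were counted after 5 days, and relative viability is the treated-to-vehicle ratio of nuclei counts. Values are medians of duplicate plates.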

[2] = test system: ABC-1
Method in brief: as §1

[3] = test system: Calu-6
Method in brief: as §1

[4] = test system: NCI-H1703
Method in brief: as §1

[5] = test system: NCI-H1437
Method in brief: as §1

[6] = test system: EBC-1
Method in brief: as §1

[7] = test system: NCI-H1651
Method in brief: as §1

[8] = test system: COR-L23
Method in brief: as §1

[9] = test system: SW 1573
Method in brief: as §1

[10] = test system: NCI-H1299
Method in brief: as §1

[11] = test system: ChaGo-K-1
Method in brief: as §1

Nc1ccn([C@@H]2O[C@H](CO)[C@@H](O)[C@@H]2O)c(=O)n1 [Cytarabine] + CC(C)C[C@H](NC(=O)[C@H](Cc1ccccc1)NC(=O)c1cnccn1)B(O)O [Bortezomib] (partner 0.002 µM)
relative viability ([1]; first compound 0.005 µM): 0.739
relative viability ([1]; first compound 0.01581 µM): 0.663
relative viability ([1]; first compound 0.05 µM): 0.648
relative viability ([1]; first compound 0.1581 µM): 0.411
relative viability ([1]; first compound 0.5 µM): 0.165
relative viability ([2]; first compound 0.005 µM): 0.307
relative viability ([2]; first compound 0.01581 µM): 0.345
relative viability ([2]; first compound 0.05 µM): 0.285
relative viability ([2]; first compound 0.1581 µM): 0.233
relative viability ([2]; first compound 0.5 µM): 0.29
relative viability ([3]; first compound 0.005 µM): 0.864
relative viability ([3]; first compound 0.01581 µM): 0.794
relative viability ([3]; first compound 0.05 µM): 0.749
relative viability ([3]; first compound 0.1581 µM): 0.609
relative viability ([3]; first compound 0.5 µM): 0.356
relative viability ([4]; first compound 0.005 µM): 0.321
relative viability ([4]; first compound 0.01581 µM): 0.172
relative viability ([4]; first compound 0.05 µM): 0.145
relative viability ([4]; first compound 0.1581 µM): 0.117
relative viability ([4]; first compound 0.5 µM): 0.134
relative viability ([5]; first compound 0.005 µM): 0.334
relative viability ([5]; first compound 0.01581 µM): 0.287
relative viability ([5]; first compound 0.05 µM): 0.243
relative viability ([5]; first compound 0.1581 µM): 0.18
relative viability ([5]; first compound 0.5 µM): 0.16
relative viability ([6]; first compound 0.005 µM): 0.543
relative viability ([6]; first compound 0.01581 µM): 0.49
relative viability ([6]; first compound 0.05 µM): 0.515
relative viability ([6]; first compound 0.1581 µM): 0.341
relative viability ([6]; first compound 0.5 µM): 0.326
relative viability ([7]; first compound 0.005 µM): 1.09
relative viability ([7]; first compound 0.01581 µM): 0.916
relative viability ([7]; first compound 0.05 µM): 0.808
relative viability ([7]; first compound 0.1581 µM): 0.7
relative viability ([7]; first compound 0.5 µM): 0.663
relative viability ([8]; first compound 0.005 µM): 1.01
relative viability ([8]; first compound 0.01581 µM): 0.945
relative viability ([8]; first compound 0.05 µM): 0.913
relative viability ([8]; first compound 0.1581 µM): 0.274
relative viability ([8]; first compound 0.5 µM): 0.165
relative viability ([9]; first compound 0.005 µM): 1.1
relative viability ([9]; first compound 0.01581 µM): 0.847
relative viability ([9]; first compound 0.05 µM): 0.675
relative viability ([9]; first compound 0.1581 µM): 0.461
relative viability ([9]; first compound 0.5 µM): 0.159
relative viability ([10]; first compound 0.005 µM): 1.01
relative viability ([10]; first compound 0.01581 µM): 1.09
relative viability ([10]; first compound 0.05 µM): 1.05
relative viability ([10]; first compound 0.1581 µM): 1.03
relative viability ([10]; first compound 0.5 µM): 1
relative viability ([11]; first compound 0.005 µM): 0.707
relative viability ([11]; first compound 0.01581 µM): 0.559
relative viability ([11]; first compound 0.05 µM): 0.443
relative viability ([11]; first compound 0.1581 µM): 0.437
relative viability ([11]; first compound 0.5 µM): 0.499

CC(=O)O[C@@]12CO[C@@H]1C[C@H](O)[C@@]1(C)C(=O)[C@H](O)C3=C(C)[C@@H](OC(=O)[C@H](O)[C@@H](NC(=O)OC(C)(C)C)c4ccccc4)C[C@@](O)([C@@H](OC(=O)c4ccccc4)[C@H]21)C3(C)C [Docetaxel] + CC(C)C[C@H](NC(=O)[C@H](Cc1ccccc1)NC(=O)c1cnccn1)B(O)O [Bortezomib] (partner 0.002 µM)
relative viability ([1]; first compound 0.0002 µM): 0.471
relative viability ([1]; first compound 0.000632 µM): 0.192
relative viability ([1]; first compound 0.002 µM): 0.11
relative viability ([1]; first compound 0.006325 µM): 0.0654
relative viability ([1]; first compound 0.02 µM): 0.0642
relative viability ([2]; first compound 0.0002 µM): 0.298
relative viability ([2]; first compound 0.000632 µM): 0.334
relative viability ([2]; first compound 0.002 µM): 0.306
relative viability ([2]; first compound 0.006325 µM): 0.247
relative viability ([2]; first compound 0.02 µM): 0.278
relative viability ([3]; first compound 0.0002 µM): 0.95
relative viability ([3]; first compound 0.000632 µM): 0.828
relative viability ([3]; first compound 0.002 µM): 0.327
relative viability ([3]; first compound 0.006325 µM): 0.182
relative viability ([3]; first compound 0.02 µM): 0.106
relative viability ([4]; first compound 0.0002 µM): 0.256
relative viability ([4]; first compound 0.000632 µM): 0.249
relative viability ([4]; first compound 0.006325 µM): 0.149
relative viability ([4]; first compound 0.02 µM): 0.0944
relative viability ([5]; first compound 0.0002 µM): 0.472
relative viability ([5]; first compound 0.000632 µM): 0.322
relative viability ([5]; first compound 0.002 µM): 0.215
relative viability ([5]; first compound 0.006325 µM): 0.145
relative viability ([5]; first compound 0.02 µM): 0.104
relative viability ([6]; first compound 0.0002 µM): 0.479
relative viability ([6]; first compound 0.000632 µM): 0.385
relative viability ([6]; first compound 0.002 µM): 0.237
relative viability ([6]; first compound 0.006325 µM): 0.27
relative viability ([6]; first compound 0.02 µM): 0.174
relative viability ([7]; first compound 0.0002 µM): 0.802
relative viability ([7]; first compound 0.000632 µM): 0.926
relative viability ([7]; first compound 0.002 µM): 0.744
relative viability ([7]; first compound 0.006325 µM): 0.22
relative viability ([7]; first compound 0.02 µM): 0.137
relative viability ([8]; first compound 0.0002 µM): 0.885
relative viability ([8]; first compound 0.000632 µM): 0.915
relative viability ([8]; first compound 0.002 µM): 0.844
relative viability ([8]; first compound 0.02 µM): 0.116
relative viability ([9]; first compound 0.0002 µM): 1.05
relative viability ([9]; first compound 0.000632 µM): 0.364
relative viability ([9]; first compound 0.002 µM): 0.265
relative viability ([9]; first compound 0.006325 µM): 0.195
relative viability ([9]; first compound 0.02 µM): 0.201
relative viability ([10]; first compound 0.0002 µM): 1.05
relative viability ([10]; first compound 0.000632 µM): 0.997
relative viability ([10]; first compound 0.002 µM): 0.948
relative viability ([10]; first compound 0.006325 µM): 0.586
relative viability ([10]; first compound 0.02 µM): 0.503
relative viability ([11]; first compound 0.0002 µM): 1
relative viability ([11]; first compound 0.000632 µM): 0.542
relative viability ([11]; first compound 0.002 µM): 0.487
relative viability ([11]; first compound 0.006325 µM): 0.419
relative viability ([11]; first compound 0.02 µM): 0.267
